According to patent publication US9340522B2, “Pyrazolone-derivatives and their use as PDE-4 inhibitors” (TAKEDA GMBH, priority 2008, dated 2016):
Where two headings read alike, the source gives them in different places.

Key:
[1] = system: LPS-induced pulmonary inflammation model in rats; test: LPS-induced pulmonary inflammation model in rats (Method A); assay type: in vivo; conditions: Rattus norvegicus, inhaled or nasal, dosage of 1 mg/kg, intratracheal dry powder insufflation 2 h prior LPS challenge, BALF 16 h after LPS, in comparison to the placebo group
Experimental: Exposure of rats to aerosolized lipopolysaccharide (LPS) causes a pulmonary mainly neutrophilic inflammation, which can be assessed by bronchoalveolar lavage (BAL). LPS-induced pulmonary inflammation models are robust and are commonly used for the evaluation of test compounds modulating the immediate immune response. Phosphodiesterase-4 inhibitors are administered by intratracheal dry powder insufflation 2 h prior nose-only LPS challenge in rats. The antiinflammatory activity of the phosphodiesterase inhibitors is assessed based on pulmonary total leukocyte and neutrophil counts in the bronchoalveolar lavage fluid 16 h after LPS exposure.
Male Sprague Dawley rats weighing 250-300 g are used. Rats are delivered 1 weak prior to the experiments and have free access to water and food.
The test compound in crystalline and micronized state is blended with lactose for inhalation ad 10 mg/kg (Respitose® SV003, DMV International, Netherlands). Respitose® and test compound are transferred to 12 ml tubes and are blended for 10 min. Dilution series are prepared from the this stock blend.
A device consisting of an Abbocath®-T catheter (18G×51 mm), a one-way stop-cock and a 5 ml syringe is used for test compound insufflation. Weighed test compound blends are directly filled in the stop-cocks. Intubation of the rats is guided by sight and is done under a short time halothane anesthesia.
The administered dose of the blended material is 10 mg/kg. The expected material loss in the device is 25%, therefore the weighted dose used is 12.5 mg/kg. One day before the experiment the rat body weights are documented and the mean body weight is used to calculate the administered blend dose per rat. LPS challenged and unchallenged control animals received drug-free Respitose® as placebo. Test compound blends and Respitose are administered 2 h prior LPS challenge.
Conscious and restrained animals are connected to a nose-only exposure system (CR equipment SA, Tannay, Switzerland) and are exposed to the LPS aerosol for 30 min. The LPS-containing aerosol is generated using a compressed air driven medication nebulizer device (OCTURNO Medizintechnik GmbH, Germany). The LPS solution (E. coli, Serotype 055B5, Art.#L2880, Lot#114K4103, Sigma-Aldrich; 0.15 mg/ml, diluted in 0.1% hydroxylamine/PBS) is continuously delivered by a syringe pump (20 ml/h) to the nebulizer device. The aerosol is dispersed and transported to the exposure tower by admixture of compressed air. All rats except negative controls are exposed to LPS.
Sixteen hours after LPS challenge, animals are sacrificed with Trapanal (thiopental, […], 2 ml/rat, i.p.), the final body weights are determined and BALs are performed. For the BAL the trachea is exposed and cannulated, followed by gently lavaging the lungs three times in situ with 4 ml PBS buffer.
Determination of total leukocyte and neutrophil counts in BALF is performed with an automated leukocyte differentiation system (XT-20001V, Sysmex, Norderstedt, Germany).
Suppression of LPS-induced total cell and neutrophil influx into the lungs is calculated in % using the means of the cell counts of each treatment group in relation to the control groups:
Statistical analysis is performed on the primary cell count data using one-way ANOVA and Dunnett's multiple comparison post test vs. positive control. The Grubbs test is used to detect outliers.

[2] = Neutrophil, read-out: reduction of neutrophils
[3] = read-out: reduction of the total cell count

Row | melting point | Compound | inhibition in vivo at 1 mg/kg [1, 2] | inhibition in vivo at 1 mg/kg [1, 3]
1 |  | COC(=O)c1ccccc1S(=O)(=O)N1CCC(N2N=C(c3ccc(OC)c(OC)c3)C(C)(C)C2=O)CC1 [Compound 2, Methyl 2-({4-[3-(3,4-dimethoxyphenyl)-4,4-dimethyl-5-oxo-4,5-dihydro-1H-pyrazol-1-yl]piperidin-1-yl}sulfonyl)benzoate] | 15 to 53% | 22 to 60%
2 |  | COc1ccc(C2=NN(C3CCN(S(=O)(=O)c4c(C(C)C)cc(C(C)C)cc4C(C)C)CC3)C(=O)C2(C)C)cc1OC [Compound 9, 5-(3,4-Dimethoxyphenyl)-4,4-dimethyl-2-(1-{[2,4,6-tri(propan-2-yl)phenyl]sulfonyl}piperidin-4-yl)-2,4-dihydro-3H-pyrazol-3-one] | 15 to 53% | 22 to 60%
3 |  | COc1ccc(C2=NN(C3CCN(S(=O)(=O)c4cccc(C)c4)CC3)C(=O)C2(C)C)cc1OC [Compound 11, 5-(3,4-Dimethoxyphenyl)-4,4-dimethyl-2-{1-[(3-methylphenyl)sulfonyl]piperidin-4-yl}-2,4-dihydro-3H-pyrazol-3-one] | 15 to 53% | 22 to 60%
4 |  | COc1ccc(C2=NN(C3CCN(S(=O)(=O)c4ccccc4F)CC3)C(=O)C2(C)C)cc1OC [Compound 14, 5-(3,4-Dimethoxyphenyl)-2-{1-[(2-fluorophenyl)sulfonyl]piperidin-4-yl}-4,4-dimethyl-2,4-dihydro-3H-pyrazol-3-one] | 15 to 53% | 22 to 60%
5 |  | COc1ccc(C2=NN(C3CCN(S(=O)(=O)c4ccccc4C(F)(F)F)CC3)C(=O)C2(C)C)cc1OC [Compound 18, 5-(3,4-Dimethoxyphenyl)-4,4-dimethyl-2-(1-{[2-(trifluoromethyl)phenyl]sulfonyl}piperidin-4-yl)-2,4-dihydro-3H-pyrazol-3-one] | 15 to 53% | 22 to 60%
6 | 244 °C | COc1ccc(C2=NN(C3CCN(S(=O)(=O)c4cccc(C(=O)O)c4)CC3)C(=O)C2(C)C)cc1OC [Compound 25, 3-({4-[3-(3,4-Dimethoxyphenyl)-4,4-dimethyl-5-oxo-4,5-dihydro-1H-pyrazol-1-yl]piperidin-1-yl}sulfonyl)benzoic acid] |  | 
7 | 214 °C | COC(=O)c1cccc(S(=O)(=O)N2CCC(N3N=C(c4ccc(OC)c(OC)c4)C(C)(C)C3=O)CC2)c1 [Compound 26, Methyl 3-({4-[3-(3,4-dimethoxyphenyl)-4,4-dimethyl-5-oxo-4,5-dihydro-1H-pyrazol-1-yl]piperidin-1-yl}sulfonyl)benzoate] |  | 
8 | 183 °C | COc1cc(C2=NN(C3CCN(S(=O)(=O)c4cccc(C)c4)CC3)C(=O)C2(C)C)cc2c1OC(C)(C)C2 [Compound 32, 5-(7-Methoxy-2,2-dimethyl-2,3-dihydro-1-benzofuran-5-yl)-4,4-dimethyl-2-{1-[(3-methylphenyl)sulfonyl]piperidin-4-yl}-2,4-dihydro-3H-pyrazol-3-one] |  | 
9 | 265 °C | COc1ccc(C2=NN(C3CCN(C(=O)c4cc5ccccc5[nH]4)CC3)C(=O)C2(C)C)cc1OC [Compound 61, 5-(3,4-Dimethoxyphenyl)-2-[1-(1H-indol-2-ylcarbonyl)piperidin-4-yl]-4,4-dimethyl-2,4-dihydro-3H-pyrazol-3-one] |  | 
10 |  | COc1cccc(C(=O)N2CCC(N3N=C(c4ccc(OC)c(OC)c4)C(C)(C)C3=O)CC2)c1 [Compound 65, 5-(3,4-Dimethoxyphenyl)-2-{1-[(3-methoxyphenyl)carbonyl]piperidin-4-yl}-4,4-dimethyl-2,4-dihydro-3H-pyrazol-3-one] | 15 to 53% | 22 to 60%
11 |  | COc1ccc(C2=NN(C3CCN(C(=O)c4cccc5ccccc45)CC3)C(=O)C2(C)C)cc1OC [Compound 68, 5-(3,4-Dimethoxyphenyl)-4,4-dimethyl-2-[1-(naphthalen-1-ylcarbonyl)piperidin-4-yl]-2,4-dihydro-3H-pyrazol-3-one] | 15 to 53% | 22 to 60%
12 |  | COc1ccc(C2=NN(C3CCN(C(=O)c4cccc(Cl)c4)CC3)C(=O)C2(C)C)cc1OC [Compound 69, 2-{1-[(3-Chlorophenyl)carbonyl]piperidin-4-yl}-5-(3,4-dimethoxyphenyl)-4,4-dimethyl-2,4-dihydro-3H-pyrazol-3-one] | 15 to 53% | 22 to 60%
13 | 154 to 156 °C | CCOc1cccc(C(=O)N2CCC(N3N=C(c4ccc(OC)c(OC)c4)C(C)(C)C3=O)CC2)c1 [Compound 70, 5-(3,4-Dimethoxyphenyl)-2-{1-[(3-ethoxyphenyl)carbonyl]piperidin-4-yl}-4,4-dimethyl-2,4-dihydro-3H-pyrazol-3-one] | 15 to 53% | 22 to 60%
14 |  | COc1ccc(C2=NN(C3CCN(C(=O)c4ccccc4Br)CC3)C(=O)C2(C)C)cc1OC [Compound 72, 2-{1-[(2-Bromophenyl)carbonyl]piperidin-4-yl}-5-(3,4-dimethoxyphenyl)-4,4-dimethyl-2,4-dihydro-3H-pyrazol-3-one] | 15 to 53% | 22 to 60%
15 |  | COc1ccc(C2=NN(C3CCN(C(=O)c4cc(OCc5ccccc5)ccc4C)CC3)C(=O)C2(C)C)cc1OC [Compound 84, 2-(1-{[5-(Benzyloxy)-2-methylphenyl]carbonyl}piperidin-4-yl)-5-(3,4-dimethoxyphenyl)-4,4-dimethyl-2,4-dihydro-3H-pyrazol-3-one] | 15 to 53% | 22 to 60%
16 | 214 to 215 °C | COc1ccc(C2=NN(C3CCN(C(=O)c4cc(O)ccc4C)CC3)C(=O)C2(C)C)cc1OC [Compound 85, 5-(3,4-Dimethoxyphenyl)-2-{1-[(5-hydroxy-2-methylphenyl)carbonyl]piperidin-4-yl}-4,4-dimethyl-2,4-dihydro-3H-pyrazol-3-one] | 15 to 53% | 22 to 60%
17 |  | COc1ccc(C2=NN(C3CCN(C(=O)c4cc(O)ccc4F)CC3)C(=O)C2(C)C)cc1OC [Compound 90, 5-(3,4-Dimethoxyphenyl)-2-{1-[(2-fluoro-5-hydroxyphenyl)carbonyl]piperidin-4-yl}-4,4-dimethyl-2,4-dihydro-3H-pyrazol-3-one] | 15 to 53% | 22 to 60%
18 | 212 to 213 °C | COc1ccc(C2=NN(C3CCN(C(=O)c4ccccc4O)CC3)C(=O)C2(C)C)cc1OC [Compound 94, 5-(3,4-Dimethoxyphenyl)-2-{1-[(2-hydroxyphenyl)carbonyl]piperidin-4-yl}-4,4-dimethyl-2,4-dihydro-3H-pyrazol-3-one] | 15 to 53% | 22 to 60%
19 | 176 °C | COc1ccc(C2=NN(C3CCN(C(=O)c4ccccc4OC4CCCC4)CC3)C(=O)C2(C)C)cc1OC [Compound 96, 2-(1-{[2-(Cyclopentyloxy)phenyl]carbonyl}piperidin-4-yl)-5-(3,4-dimethoxyphenyl)-4,4-dimethyl-2,4-dihydro-3H-pyrazol-3-one] | 15 to 53% | 22 to 60%
20 |  | COc1ccc(C2=NN(C3CCN(C(=O)c4ccccc4OCC(N)=O)CC3)C(=O)C2(C)C)cc1OC [Compound 97, 2-[2-({4-[3-(3,4-Dimethoxyphenyl)-4,4-dimethyl-5-oxo-4,5-dihydro-1H-pyrazol-1-yl]piperidin-1-yl}carbonyl)phenoxy]acetamide] | 15 to 53% | 22 to 60%
